Reference: article PMC12508057, “Discovery of ETI41 and ETI60: novel selective endosomal Toll-like receptor inhibitors for the treatment of autoimmune diseases” (Experimental & Molecular Medicine, 2025)
Read-outs that look alike come from different tables or passages of the source.

Assays:
[1] = target: T1, human TLR7 (Homo sapiens, UniProt Q9NYK1); experiment: SPR binding to TLR7; settings: for SPR binding to TLR7: neutral pH 7.4 (early endosome)
T1 construct: Fc; purchased R&D Systems
T1 sequence (Q9NYK1 27-839 limits assumed): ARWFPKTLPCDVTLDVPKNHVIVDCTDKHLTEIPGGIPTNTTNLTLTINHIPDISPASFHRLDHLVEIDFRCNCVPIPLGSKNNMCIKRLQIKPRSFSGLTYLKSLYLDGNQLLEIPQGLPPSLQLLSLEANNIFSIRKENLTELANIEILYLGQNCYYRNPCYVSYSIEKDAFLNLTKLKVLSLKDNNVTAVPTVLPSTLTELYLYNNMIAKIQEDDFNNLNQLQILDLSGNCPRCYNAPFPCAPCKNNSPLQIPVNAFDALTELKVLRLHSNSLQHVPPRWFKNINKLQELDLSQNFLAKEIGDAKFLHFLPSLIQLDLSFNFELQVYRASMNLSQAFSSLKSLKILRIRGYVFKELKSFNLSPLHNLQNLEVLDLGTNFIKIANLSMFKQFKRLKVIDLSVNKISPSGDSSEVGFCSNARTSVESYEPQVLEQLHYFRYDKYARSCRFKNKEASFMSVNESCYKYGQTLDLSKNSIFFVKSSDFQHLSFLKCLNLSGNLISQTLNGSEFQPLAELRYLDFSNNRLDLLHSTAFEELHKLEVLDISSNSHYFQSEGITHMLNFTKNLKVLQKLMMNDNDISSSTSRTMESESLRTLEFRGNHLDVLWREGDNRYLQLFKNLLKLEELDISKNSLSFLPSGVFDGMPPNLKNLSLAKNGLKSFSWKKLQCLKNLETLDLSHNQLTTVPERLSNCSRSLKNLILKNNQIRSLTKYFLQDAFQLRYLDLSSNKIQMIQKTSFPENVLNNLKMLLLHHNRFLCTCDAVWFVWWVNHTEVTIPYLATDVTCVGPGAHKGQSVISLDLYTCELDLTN
Experimental: Surface plasmon resonance (SPR) analysis was conducted using an SR7500DC SPR System (Reichert) with a CMDH chip for human TLR7 and murine TLR9 (R&D Systems) and a Biacore T200 platform (Cytiva) with a CM5 chip for TLR9–ODN binding. The running buffer contained 0.5% DMSO and phosphate-buffered saline, and 50 mM NaOH was used for regeneration. ETI series compounds were serially diluted from 500 μM and tested for binding affinity. Binding curves were analyzed using Scrubber2 and Biacore T200 evaluation softwares. The dissociation constants (KD) were calculated as KD = kd/ka.
SPR confirmed the binding mechanisms of ETI41 and ETI60 with TLR7 and TLR9, respectively, under three conditions: (a) early endosome (pH 7.4), (b) late endosome without CpG (pH 5.5) and (c) late endosome with CpG (pH 5.5). (a) Both ETI41 and ETI60 were measured for parameters indicating binding affinity, including the KD value presented in Table 3, and were further analyzed under conditions (b) and (c), depending on the presence or absence of ligand, to explain the binding mechanism occurring in TLR9.

[2] = tested on: TLR7- and TLR9-dependent downstream signaling; experiment: Western blot of TLR7- and TLR9-dependent downstream signaling in RAW 264.7; assay type: cell-based, mouse; settings: RAW 264.7, 5 or 10 μM
Experimental: RAW 264.7 cells were seeded into 60-mm dishes at 1 × 10^6 cells per dish. After 30 min of treatment with ETI41 or ETI60, the cells were stimulated with 2 μM IMQ (a TLR7 agonist) or 1 μM ODN2395 (a TLR9 agonist). Lysates were prepared using a Mammalian Protein Extraction Kit (Thermo Fisher Scientific) with protease and phosphatase inhibitors. Nuclear proteins were extracted using an NE-PER Nuclear and Cytoplasmic Extraction Kit (Thermo Fisher Scientific). Proteins were quantified using a bicinchoninic acid kit (Sigma-Aldrich), separated by SDS–PAGE and transferred onto nitrocellulose membranes (GE Healthcare). Membranes were incubated with specific primary antibodies and horseradish peroxidase-conjugated secondary antibodies. […] Protein bands were detected using a chemiluminescent substrate (SuperSignal West Pico PLUS; Thermo Fisher Scientific) and visualized using a Fuji LAS-3000 system (Fujifilm).
Fig. 2 ETI41 and ETI60 inhibit TLR7- and TLR9-dependent downstream signaling. a, b Western blot analysis was used to quantify the protein levels of phosphorylated p-ERK, p-JNK, p38, Iκ-Bα and p65. […] Statistical differences between the induced and other cases were analyzed and verified using a one-tailed Student’s t-test (*P < 0.05, **P < 0.01, ***P < 0.001). e–g The TLR7 agonist IMQ (1 μM) was used in 3’ RNA-seq analysis to induce signaling associated with immune responses in RAW 264.7 cells. […]

Row | Compound | Kd [1] [mM] | kd ([1]; Fc-TLR7, pH 7.4) [s⁻¹] | SPR binding to TLR7 [1] | kon ([1]; pH 7.4, read-out: ka) [M⁻¹ s⁻¹] | IMQ- or ODN2395-induced phosphorylation of MAPKs (p-ERK, p-JNK, p-p38), nuclear translocation of NF-κB p65, Iκ-Bα degradation and IRF7 expression [2] | Kd ([1]; Fc-TLR7, pH 7.4, read-out: KD) [mM] | kon ([1]; Fc-TLR7, pH 7.4, read-out: ka) [M⁻¹ s⁻¹]
1 | Cc1cc2c(N)c3c(nc2n1CCCN(C)C)CCCCCC3 [ETI41] | 0.54 | 0.21 | clear binding affinity | 400 | inhibited | – | –
2 | COc1ccc2c3c(N)c4c(nc3n(CCCN(C)C)c2c1)CCCC4 [ETI60] | – | 0.124 | clear binding affinity | – | inhibited | 6 | 20
